According to PMC7531004, “Discovery of gramicidin A analogues with altered activities by multidimensional screening of a one-bead-one-compound library” (Nature Communications, 2020):
Where a SMILES comes first, the peptide text is derived from it. [ ]: non-standard residue; d: D form. The star is where a group is joined. NHCH2CH2OH = OCCN*; For = O=C*

Tests used:
[1] = H+/Na+ transport assay of bead-derived peptides (one-point); format: biochemical; parameters: key: relative activity; mean of two control wells = 1.00; details: bead-derived peptide solution, EYPC/EYPG LUVs;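 note: relative to parent gramicidin A activity set to 1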
Procedure, shortened: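 Miniaturized 96-well format. LUVs with entrapped pyranine (1.0 mM) were exposed to peptide for 30 min at RT. Intensities were expressed relative to full lysis by Triton X-100 and no treatment, with control-well mean = 1.00.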

[2] = cell viability/%
Procedure, shortened: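 First, library peptide stocks are diluted 250-fold in RPMI1640 with 10% heat-inactivated FBS. Next, they are mixed with P388 cells to give 1 × 10^4 cells/mL and incubated 92 h at 37 °C, 5% CO2. Finally, viability (%) is scored by WST-1 absorbance at 415 nm.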

[3] = tested on: Streptococcus pyogenes SSI-9; experiment: Antibacterial activity assay of bead-derived peptides (three concentrations); format: cell-based; parameters: key: +++: inhibition by the 640-fold diluted peptide solution; ++: inhibition by the 160-fold diluted solution; +: inhibition by the 40-fold diluted solution; -: no inhibition; details: S. pyogenes, bead-derived peptide solution, three concentrations
Procedure, shortened: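 Bead-derived library peptide stocks in DMSO were tested undiluted and after 4- and 16-fold DMSO dilution against S. pyogenes SSI-9 (2 × 10^5 CFU/well) in cation-adjusted Mueller Hinton Broth with 5% laked horse blood. After 18 h at 37 °C, wells were scored for precipitation of grown cells.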

Compound | H+/Na+ transport activity normalized against the value of 1 (1.00) [1] | viability [2] [%] | antibacterial activity [3]
CC(C)C[C@@H](NC(=O)[C@H](Cc1c[nH]c2ccccc12)NC(=O)[C@@H](CC(C)C)NC(=O)[C@@H](NC(=O)[C@H](NC(=O)[C@H](C)NC(=O)[C@H](NC(=O)[C@H](C)NC(=O)CNC(=O)[C@@H](NC=O)C(C)C)C(C)C)[C@H](C)O)C(C)C)C(=O)N[C@@H](Cc1c[nH]c2ccccc12)C(=O)N[C@H](CC(C)C)C(=O)N[C@@H](Cc1c[nH]c2ccccc12)C(=O)N[C@@H](C(=O)N[C@@H](Cc1c[nH]c2ccccc12)C(=O)NCCO)C(C)C [compound 2495] (For-VGA[dV]A[dT]V[dL]W[dL]W[dL]W[dV]W-NHCH2CH2OH) | 1.22 | 100 | -
CC(C)C[C@@H](NC(=O)[C@H](Cc1c[nH]c2ccccc12)NC(=O)[C@@H](CC(C)C)NC(=O)[C@H](Cc1c[nH]c2ccccc12)NC(=O)[C@H](NC(=O)[C@H](Cc1c[nH]c2ccccc12)NC(=O)[C@@H](CC(C)C)NC(=O)[C@@H](NC(=O)[C@H](NC(=O)[C@H](C)NC(=O)[C@H](NC(=O)[C@H](C)NC(=O)CNC(=O)[C@@H](NC=O)C(C)C)C(C)C)[C@H](C)O)C(C)C)C(C)C)C(=O)N[C@@H](Cc1c[nH]c2ccccc12)C(=O)NCCO [compound 2085] (For-VGA[dV]A[dT]V[dL]W[dV]W[dL]W[dL]W-NHCH2CH2OH) | 1.20 | 100 | -
CC(C)[C@H](NC=O)C(=O)NCC(=O)N[C@@H](C)C(=O)N[C@@H](C(=O)N[C@@H](C)C(=O)N[C@@H](C(=O)N[C@H](C(=O)N[C@@H](C(=O)N[C@@H](Cc1c[nH]c2ccccc12)C(=O)N[C@@H](C(=O)N[C@@H](Cc1c[nH]c2ccccc12)C(=O)N[C@@H](C(=O)N[C@@H](Cc1c[nH]c2ccccc12)C(=O)N[C@@H](C(=O)N[C@@H](Cc1c[nH]c2ccccc12)C(=O)NCCO)C(C)C)C(C)C)[C@H](C)O)C(C)C)C(C)C)C(C)C)C(C)C [compound 532] (For-VGA[dV]A[dV]V[dV]W[dT]W[dV]W[dV]W-NHCH2CH2OH) | 1.03 | 100 | -
CC(C)C[C@@H](NC(=O)[C@H](Cc1c[nH]c2ccccc12)NC(=O)[C@H](NC(=O)[C@@H](NC(=O)[C@H](NC(=O)[C@H](C)NC(=O)[C@H](NC(=O)[C@H](C)NC(=O)CNC(=O)[C@@H](NC=O)C(C)C)[C@H](C)O)C(C)C)C(C)C)C(C)C)C(=O)N[C@@H](Cc1c[nH]c2ccccc12)C(=O)N[C@@H](C(=O)N[C@@H](Cc1c[nH]c2ccccc12)C(=O)N[C@@H](C(=O)N[C@@H](Cc1c[nH]c2ccccc12)C(=O)NCCO)C(C)C)C(C)C [compound 629] (For-VGA[dT]A[dV]V[dV]W[dL]W[dV]W[dV]W-NHCH2CH2OH) | 1.12 | 100 | -
CC(C)C[C@@H](NC(=O)[C@H](Cc1c[nH]c2ccccc12)NC(=O)[C@H](NC(=O)[C@@H](NC(=O)[C@H](NC(=O)[C@H](C)NC(=O)[C@H](NC(=O)[C@H](C)NC(=O)CNC(=O)[C@@H](NC=O)C(C)C)C(C)C)C(C)C)C(C)C)C(C)C)C(=O)N[C@@H](Cc1c[nH]c2ccccc12)C(=O)N[C@@H](C(=O)N[C@@H](Cc1c[nH]c2ccccc12)C(=O)N[C@@H](C(=O)N[C@@H](Cc1c[nH]c2ccccc12)C(=O)NCCO)C(C)C)C(C)C [compound 169] (For-VGA[dV]A[dV]V[dV]W[dL]W[dV]W[dV]W-NHCH2CH2OH) | 1.04 | 100 | ++
CC(C)C[C@@H](NC(=O)[C@H](C)NC(=O)CNC(=O)[C@@H](NC=O)C(C)C)C(=O)N[C@@H](C)C(=O)N[C@@H](C(=O)N[C@H](C(=O)N[C@@H](C(=O)N[C@@H](Cc1c[nH]c2ccccc12)C(=O)N[C@H](CC(C)C)C(=O)N[C@@H](Cc1c[nH]c2ccccc12)C(=O)N[C@H](CC(C)C)C(=O)N[C@@H](Cc1c[nH]c2ccccc12)C(=O)N[C@@H](C(=O)N[C@@H](Cc1c[nH]c2ccccc12)C(=O)NCCO)C(C)C)C(C)C)C(C)C)C(C)C [compound 6345] (For-VGA[dL]A[dV]V[dV]W[dL]W[dL]W[dV]W-NHCH2CH2OH) | 1.13 | 57.3 | ++
CC(C)C[C@@H](NC(=O)[C@H](C)NC(=O)CNC(=O)[C@@H](NC=O)C(C)C)C(=O)N[C@@H](C)C(=O)N[C@@H](C(=O)N[C@H](C(=O)N[C@H](CC(C)C)C(=O)N[C@@H](Cc1c[nH]c2ccccc12)C(=O)N[C@H](CC(C)C)C(=O)N[C@@H](Cc1c[nH]c2ccccc12)C(=O)N[C@H](CC(C)C)C(=O)N[C@@H](Cc1c[nH]c2ccccc12)C(=O)N[C@H](CC(C)C)C(=O)N[C@@H](Cc1c[nH]c2ccccc12)C(=O)NCCO)C(C)C)C(C)C [compound 8397] (For-VGA[dL]A[dV]V[dL]W[dL]W[dL]W[dL]W-NHCH2CH2OH) | 1.12 | 0 | +
CNC(=O)C[C@@H](NC(=O)[C@@H](NC(=O)[C@@H](CC(C)C)NC(=O)[C@H](C)NC(=O)[C@@H](CC(C)C)NC(=O)[C@H](C)NC(=O)CNC(=O)[C@@H](NC=O)C(C)C)C(C)C)C(=O)N[C@@H](Cc1c[nH]c2ccccc12)C(=O)N[C@@H](C(=O)N[C@@H](Cc1c[nH]c2ccccc12)C(=O)N[C@@H](C(=O)N[C@@H](Cc1c[nH]c2ccccc12)C(=O)N[C@@H](C(=O)N[C@@H](Cc1c[nH]c2ccccc12)C(=O)NCCO)C(C)C)C(C)C)C(C)C [compound 3931] (For-VGA[dL]A[dL]V[dD](NHMe)W[dV]W[dV]W[dV]W-NHCH2CH2OH) | 1.16 | 100 | -
CC(C)C[C@@H](NC(=O)[C@H](C)NC(=O)CNC(=O)[C@@H](NC=O)C(C)C)C(=O)N[C@@H](C)C(=O)N[C@H](CC(C)C)C(=O)N[C@H](C(=O)N[C@H](CC(C)C)C(=O)N[C@@H](Cc1c[nH]c2ccccc12)C(=O)N[C@@H](C(=O)N[C@@H](Cc1c[nH]c2ccccc12)C(=O)N[C@H](CC(C)C)C(=O)N[C@@H](Cc1c[nH]c2ccccc12)C(=O)N[C@H](CC(C)C)C(=O)N[C@@H](Cc1c[nH]c2ccccc12)C(=O)NCCO)C(C)C)C(C)C [compound 2828] (For-VGA[dL]A[dL]V[dL]W[dV]W[dL]W[dL]W-NHCH2CH2OH) | 1.15 | 2.8 | -
CC(C)C[C@@H](NC(=O)[C@H](C)NC(=O)[C@H](NC(=O)[C@H](C)NC(=O)CNC(=O)[C@@H](NC=O)C(C)C)C(C)C)C(=O)N[C@H](C(=O)N[C@@H](C(=O)N[C@@H](Cc1c[nH]c2ccccc12)C(=O)N[C@@H](C(=O)N[C@@H](Cc1c[nH]c2ccccc12)C(=O)N[C@@H](C(=O)N[C@@H](Cc1c[nH]c2ccccc12)C(=O)N[C@@H](C(=O)N[C@@H](Cc1c[nH]c2ccccc12)C(=O)NCCO)C(C)C)C(C)C)C(C)C)C(C)C)C(C)C [compound 7690] (For-VGA[dV]A[dL]V[dV]W[dV]W[dV]W[dV]W-NHCH2CH2OH) | 1.03 | 100 | -
CC(C)C[C@@H](NC(=O)[C@H](C)NC(=O)[C@H](NC(=O)[C@H](C)NC(=O)CNC(=O)[C@@H](NC=O)C(C)C)[C@H](C)O)C(=O)N[C@H](C(=O)N[C@H](CC(C)C)C(=O)N[C@@H](Cc1c[nH]c2ccccc12)C(=O)N[C@@H](C(=O)N[C@@H](Cc1c[nH]c2ccccc12)C(=O)N[C@@H](C(=O)N[C@@H](Cc1c[nH]c2ccccc12)C(=O)N[C@@H](C(=O)N[C@@H](Cc1c[nH]c2ccccc12)C(=O)NCCO)C(C)C)C(C)C)C(C)C)C(C)C [compound 1842] (For-VGA[dT]A[dL]V[dL]W[dV]W[dV]W[dV]W-NHCH2CH2OH) | 1.26 | 100 | -
CNC(=O)C[C@@H](NC(=O)[C@@H](NC(=O)[C@H](NC(=O)[C@H](C)NC(=O)[C@H](NC(=O)[C@H](C)NC(=O)CNC(=O)[C@@H](NC=O)C(C)C)C(C)C)C(C)C)C(C)C)C(=O)N[C@@H](Cc1c[nH]c2ccccc12)C(=O)N[C@@H](C(=O)N[C@@H](Cc1c[nH]c2ccccc12)C(=O)N[C@@H](C(=O)N[C@@H](Cc1c[nH]c2ccccc12)C(=O)N[C@H](CC(C)C)C(=O)N[C@@H](Cc1c[nH]c2ccccc12)C(=O)NCCO)C(C)C)C(C)C [compound 11413] (For-VGA[dV]A[dV]V[dD](NHMe)W[dV]W[dV]W[dL]W-NHCH2CH2OH) | 1.21 | 45.4 | -
CC(C)C[C@@H](NC(=O)[C@H](C)NC(=O)CNC(=O)[C@@H](NC=O)C(C)C)C(=O)N[C@@H](C)C(=O)N[C@@H](C(=O)N[C@H](C(=O)N[C@H](CC(C)C)C(=O)N[C@@H](Cc1c[nH]c2ccccc12)C(=O)N[C@@H](C(=O)N[C@@H](Cc1c[nH]c2ccccc12)C(=O)N[C@@H](C(=O)N[C@@H](Cc1c[nH]c2ccccc12)C(=O)N[C@H](CC(C)C)C(=O)N[C@@H](Cc1c[nH]c2ccccc12)C(=O)NCCO)C(C)C)C(C)C)C(C)C)C(C)C [compound 8051] (For-VGA[dL]A[dV]V[dL]W[dV]W[dV]W[dL]W-NHCH2CH2OH) | 1.13 | 16.8 | +
